Here are results for 3 molecules from patent publication US7094809B2, “Method of treating subject infected with Neisseria gonorrhea” (Northeastern Ohio Universities College of Medicine, priority 2000, dated 2006).

Series [1] relates to HSV-1. The experiment in a line: HSV-1 plaque assay, infected Vero cells, moi 1 (Example 3). Type of series: cell-based. Conditions: 50 μM, data not shown. The procedure: Cultures of African green monkey kidney cells (Vero) cells, obtained from the American Type Culture Collection, Rockville, Md. were grown to confluence in Medium 199 supplemented with 5% fetal bovine serum, 0.075% NaHCO3, and 50 μg/ml gentamycin sulfate in 25 cm^2 tissue culture flasks. Cells were infected with HSV-1 at a multiplicity of infection (moi) of one and incubated at room temperature for one hour to allow for virus attachment to and penetration of the cell. Under these conditions, approximately half of the cells are infected with virus. Thereafter, the cultures were rinsed three time with media and incubated in medium containing 50 μM or 75 μM 4, 4′-dihydroxytolan prepared in 0.2% dimethyl-sulfoxide (DMSO). Controls were treated identically, but were incubated without the dihyroxylated tolan. For purposes of comparison, HSV cell were also inoculated in the presence of 52.5 μM 4,4′-dihydroxystilbene. Due to the higher cell toxicity of the stilbene, cells were not incubated in the presence of 75 μM dihydroxystilbene.
Upon addition of the medium to the cultures and at 24 hours time periods thereafter, i.e., 0 hours, 24 hours, 48 hours, and 72 hours after addition of the drug, cells and medium were frozen at −70° C. Samples were then thawed, sonicated and titrated on Vero cells to determine the number of plaque forming units (pfu's) of virus produced by each culture.

Another series concerns Vero cells. The experiment in a line: MTT colorimetric cell toxicity assay. Type of series: cell-based, African green monkey. The procedure: Cell toxicity of the tolans 4,4′-dihydroxytolan (“Tolan-5”), 3,4′,5-trihydroxytolan (“Tolan-10”) and 4-hydroxy-4′-trifluoromethyltolan (“Tolan-11”) was determined using an MTT assay. In this assay, cells are exposed to MTT, 3-(4,5-dimethylthiazol-2-yl)-2,5-diphenyltetrazolium bromide, which is taken into the cells and reduced by mitochondrial dehydrogenase to a purple formazan, a large molecule which is unable to pass through intact cell membranes, and therefore accumulates in healthy cells. The ability of cells to reduce MTT is an indication of mitochondrial integrity and activity, which may be interpreted as a measure of viability. Solubilization of the cells results in the liberation of the product which can readily be detected spectrophotometrically.
Various concentrations of Tolan-5, Tolan-10 and Tolan-11 were added to 96 well tissue culture plates that had been seeded with Vero cells. The plates were then incubated at 37° C. in 5% CO2/95% air for 24, 48 and 72 hours. At the end of each time point, 50 μl of MTT (1 mg/ml) was added to the tissue culture plates which were then incubated for an additional four hours. At the end of that time, dimethyl sulfoxide (DMSO) was added to dissolve the cells and formazan, and the plates were read spectrophotometrically at 540 nm. […] Presented in Table I below are the toxicity results for Tolan-5, Tolan-10, and Tolan-11 measured at 24, 48 and 72 hours of treatment.

Series [2] deals with HSV-1. The series can be described thus: Inhibition of HSV-1 replication in vitro, plaque assay (Example 9). Type of series: cell-based. Conditions: for HSV-1 production: Vero cells, moi 1, up to 72 hours. The procedure: Tissue culture cells were infected with HSV-1 and incubated in solutions containing Tolan-5, Tolan-10 and Tolan-11. The concentrations used ranged from one-half to three-quarters of the calculated CD50 for the respective tolan at 48 hours of treatment. Specifically, Vero cells were infected with HSV-1 at a multiplicity of infection of one for one hour. At the end of that time, the cultures were rinsed with media and fresh media containing various concentration of the respective tolan were added. Infected control cultures were incubated in media lacking hydroxylated tolan. At 1, 24, 48, and 72 hours after infection, samples were frozen at −70° C. until assayed for new virus production. Virus production was quantified by the plaque assay for each time point of infection. The results, which are expressed as plaque forming units per milliliter (pfu/ml).

Series [3] concerns HSV-1. The experiment in a line: HSV-1 skin scratch infection in hairless mice, topical treatment (Example 10). Type of series: in vivo, SKH-1 hairless mice. Particulars: for severity of HSV lesions: topical, three times a day for five days, versus untreated or DMSO only; for animals that perished within 11 days after infection: controls 50% died. On the procedure:
Female SKH-1 hairless mice 4–5 weeks old were lightly anesthetized and a scratch approximately 2–3 mm long and 0.25 mm deep was made on the lateral dorsal aspect of the neck. The scratch was infected with 10^6 plaque forming units of HSV-1. One hour later, the infected scratch area was treated with a 5% or 10% solution of Tolan-10 in DMSO. This treatment was repeated three times a day for five days. There were at least six mice in each treatment group. Untreated mice and mice treated with DMSO only were used as controls. Beginning on day 1 and continuing for 10–11 days, the scratch site was examined daily for evidence of an HSV infection and scored according to the following schedule: • 0=no visible change on skin by scratch • 1+=papules around scratch • 2+=papules around scratch ulcerate with scab formation • 3+=ulcerative zosterform spread along peripheral nerves to flank of animal • 4+=ulcerative lesions open on flank • 5+=death/sacrifice The data was grouped according to treatment and statistically analyzed for significance.

Series [4] relates to Neisseria gonorrhea CDC 98. The experiment in a line: Growth inhibition on chocolate agar plates. It counts as cell-based. The procedure: (§1) Various concentrations of the trihydroxytolan Tolan-10 were incorporated into chocolate agar plates that were prepared using standard procedures. The trihydroxylated tolan was first dissolved in DMSO and medium and then added to liquid chocolate agar, which was then poured into petri plates and allowed to solidify. The highest concentration of DMSO in the agar was 0.5%. Control plates containing chocolate agar and DMSO at a final concentration of 0.5% were also prepared.
Neisseria gonorrhea CDC 98 was obtained from Difco Laboratories. The authenticity of the bacterium was confirmed utilizing standard microbiological techniques of identification. Cultures of the bacterial isolate were inoculated onto fresh plates of solidified chocolate agar and then 24 hours later, a suspension was made from isolated colonies.
(§2) 10 μl aliquots of the suspension were spread evenly across the surface of solidified control chocolate agar lacking tolan and the surface of solidified chocolate agar containing Tolan-10 at final concentrations ranging from 1 to 125 μg/ml. Thereafter, the agar plates were incubated at 37° C. with or without 5% CO2. All plates were visually examined for growth of the bacterium 24 hours later to determine the concentration of the tri-hydroxylated tolan that inhibits growth by 50% (MIC50) as well as the concentration which inhibits any visible growth (MIC100).

A further series concerns Candida albicans. The experiment in a line: Growth inhibition on agar plates. Type of series: cell-based. On the procedure: as §1, §2
(§3) The effect of the same concentrations of Tolan-10 on the growth of Escherichia coli, Staphylococcus aureus, Streptococcus pyogenes, Pseudomonas aeruginosa, Neisseria meningiditis and Candida albicans was also determined. […] The IC50 value of the tri-hydroxylated tolan for this bacterium at 24 hours of treatment was 50 μg/ ml and the IC100 value was 100 μg/ml. In contrast, Tolan 10, at the highest concentration tested, had no effect on the other microorganisms listed.

A further series has as its system Escherichia coli. The series can be described thus: Growth inhibition on agar plates. Type of series: cell-based. On the procedure:
as §1, §2, §3

The subject of a further series is Neisseria meningiditis. The series can be described thus: Growth inhibition on agar plates. It counts as cell-based. On the procedure:
as §1, §2, §3

In another series the test system is Pseudomonas aeruginosa. The series can be described thus: Growth inhibition on agar plates. Type of series: cell-based. On the procedure: as §1, §2, §3
The test system of another series is Staphylococcus aureus. The experiment in a line: Growth inhibition on agar plates. Type of series: cell-based. The procedure:
as §1, §2, §3

In another series the test system is Streptococcus pyogenes. The experiment in a line: Growth inhibition on agar plates. Type of series: cell-based. The procedure: as §1, §2, §3

≈ marks a conversion by molar mass, not a printed value. Like-named read-outs stand apart in the source and are kept apart here. Bounds are passed on as bounds.

Take `Oc1ccc(C=Cc2ccc(O)cc2)cc1` [4,4′-dihydroxystilbene, reference compound]: the “effect on virus production” value in the series with HSV-1 [1] is “no effect”.

Turning to `Oc1ccc(C#Cc2cc(O)cc(O)c2)cc1` [Tolan-10, 3,4′,5-trihydroxytolan], the “toxicity (in words)” value with Vero cells is listed as “very little toxicity”. The CD50 in the series on Vero cells (24 hours), with Vero cells (48 hours) and with Vero cells (72 hours) was greater than 200 µM in each case. In addition, the “estimated CD50” value with Vero cells (summary of Table 1) is reported as greater than 200 μm. The “effectiveness against the virus over concentrations” value in the series with HSV-1 [2] (350 μm to 175 μm) is recorded as “equally effective against the virus at all concentrations”. In addition, the HSV-1 production entry with HSV-1 [2] was “inhibited HSV-1 production”. Besides, the “severity of HSV lesions” value in the series on HSV-1 [3] (5% solution in DMSO) and with HSV-1 [3] (10% solution in DMSO) was “significantly reduced the severity of HSV lesions” each time. In addition, the “animals that perished within 11 days after infection” value in the series on HSV-1 [3] (5%) and with HSV-1 [3] (10%) was “none” throughout. Further, in the series on HSV-1 [3] (particularly days 6–10, not significantly different), the “effectiveness of 10% compared with 5%” value was “slightly more effective than 5% Tolan-10”. Further, in series [4] (24 hours of treatment), the IC100 value was found to be 100 µg/mL. The IC100 in series [4] (N. gonorrhoeae, agar, 24 hours) was 100 mg/L; in the series with Candida albicans (C. albicans), greater than 125 mg/L; in the series on Escherichia coli (E. coli), greater than 125 mg/L; in the series with Pseudomonas aeruginosa (P. aeruginosa), greater than 125 mg/L; in the series with Staphylococcus aureus (S. aureus), greater than 125 mg/L; with Streptococcus pyogenes (S. pyogenes), greater than 125 mg/L. For the same molecule, the IC50 was 50 µg/mL (≈ 221 µM) in series [4] (N. gonorrhoeae, agar, 24 hours, read-out: IC50); 50 µg/mL (≈ 221 µM) in [4] (Neisseria, CDC98, 24 hours of treatment, read-out: IC50 value); greater than 125 µg/mL with Candida albicans (Candida albicans, C. albicans); greater than 125 µg/mL in the series on Escherichia coli (Escherichia coli, E. coli); greater than 125 µg/mL in the series with Neisseria meningiditis (Neisseria, N. meningitides); greater than 125 µg/mL in the series with Pseudomonas aeruginosa (Pseudomonas aeruginosa, P. aeruginosa). Moreover, the IC50 was greater than 125 µg/mL in the series on Staphylococcus aureus (Staphylococcus aureus, S. aureus) and greater than 125 µg/mL in the series with Streptococcus pyogenes (Streptococcus pyogenes, S. pyogenes). Besides, the “selectivity of growth inhibition” value in series [4] (versus the other microorganisms tested) is reported as “selectively inhibited”. Besides, the effect on growth entry with Candida albicans (highest concentration tested), with Escherichia coli (highest concentration tested), with Neisseria meningiditis (highest concentration tested), in the series with Pseudomonas aeruginosa (highest concentration tested), in the series on Staphylococcus aureus (highest concentration tested) and in the series on Streptococcus pyogenes (highest concentration tested) was “no effect” in each case.

For `Oc1ccc(C#Cc2ccc(C(F)(F)F)cc2)cc1` [Tolan-11, 4-hydroxy-4′-trifluoromethyltolan], the “toxicity (in words)” value in the series on Vero cells was “more toxic than the other hydroxylated tolans”. Further, the CD50 with Vero cells (24 hours) was found to be 72.1 µM; with Vero cells (48 hours), 48.2 µM; in the series with Vero cells (72 hours) it was 47.1 µM. Moreover, in the series on HSV-1 [2], the HSV-1 production entry is “inhibited HSV-1 production”. Also, in the series with HSV-1 [2] (concentration of less than 48 μm), the “effect on HSV-1 production” value was “little to no effect”.

Usually IC50 stands for the concentration needed to halve the response being measured.
